Here are results for one molecule from patent KR20180046249A, “리소스퍼믹 액시드를 포함하는 구강질환 예방 또는 치료용 조성물” (주식회사 엘지생활건강, priority 2016, dated 2018).

Broadly, the inhibition is how much of the control response was suppressed. Low values mean a weak effect, high ones a strong effect.

What all share (assay type): cell-based
In one assay the test system is PGE2. Briefly: PGE2 inhibition in LPS-stimulated macrophages (ELISA). The following applies: LPS 1 ㎍/ml. For orientation: In an ELISA, binding on a coated surface is turned into a signal by an enzyme label.
The subject of the next assay is Streptococcus mutans. The assay is described as follows: Paper disc antibacterial test, Streptococcus mutans. The conditions noted are these: 24-48 h incubation, untreated: no inhibition.
Another assay concerns Porphyromonas gingivalis. Briefly: Paper disc antibacterial test, Porphyromonas gingivalis. The following applies: anaerobic, 24-48 h incubation, untreated: no inhibition.

With `O=C(/C=C/c1ccc(O)c2c1[C@H](C(=O)O)[C@@H](c1ccc(O)c(O)c1)O2)O[C@H](Cc1ccc(O)c(O)c1)C(=O)O` [리소스퍼믹 액시드, lithospermic acid], the “PGE2 inhibition, concentration dependence (in words)” value in the assay with PGE2 is “농도 의존적으로 PGE2를 억제하는 효과”. This molecule registered an inhibition at 2 ppm with PGE2 (Macrophage, 2ppm, 24 h, compared with LPS-only group) of approximately 50%. The molecule also gave an inhibition at 20 ppm with PGE2 (Macrophage, 20ppm, 24 h, compared with LPS-only group) of approximately 70%. Besides, the “growth inhibition zone diameter” value is recorded as approximately 10.0 mm in the assay on Streptococcus mutans (10 mg/disc, 8 mm disc, 37, BHI) and approximately 10.0 mm with Porphyromonas gingivalis (10 mg/disc, 8 mm disc, 37, TSA Hemin Menadione medium). Besides, the zone of inhibition at 10 mg/disc in the assay on Streptococcus mutans (Streptococcus mutans, 8 mm disc, 37, BHI, read-out: growth inhibition zone diameter) came to 10.7 mm; in the assay on Porphyromonas gingivalis (Porphyromonas gingivalis, 8 mm disc, 37, TSA Hemin Menadione medium, read-out: growth inhibition zone diameter) it was 9.8 mm.
